Patent publication US8883504B2, “Cell differentiation suppressing agent, method of culturing cells using the same, culture solution, and cultured cell line” (Asahi Kasei Kabushiki Kaisha, priority 2003, dated 2014)

Experiments:
Oct-3/4 gene = Oct-3/4 gene expression level by real time PCR (ES cell differentiation inhibition assay 2); type: cell-based, mouse; details: D3ES cells, 7 days
Description: For the D3ES cells prepared by the method described in (3) preparation of a mouse ES cell of Example 1, 8×10^4 cells were seeded in a 10 cm-diameter cell culture dish coated previously with a 0.1% aqueous gelatin solution to make 10 mL of the ES cell assay medium. 1 mL of the differentiation inhibiting agent A to F, which were dissolved in dimethylsulfoxide (DMSO) or culture medium or their mixture to make 40 μg/mL per each dish, or ESGRO, which was adjusted to make 10^4 unit/mL, was added, and culturing was carried out at 37° C. in 5% […] incubator for 7 days. To the culture medium was added DMSO to make the final concentration 0.1% or lower.
A total RNA was extracted from the ES cells cultured by the method described in (1) ES cell differentiation inhibition assay 2 as described above, by using ISOGEN (K.K. Nippon Gene, Japan made) by the attached method. First, the medium was removed from the dish after the culture, the cells were washed twice with 10 mL of PBS, and dissolved in 1 mL of ISOGENE. After leaving stand at room temperature for 5 minutes, the solution was collected in a 1.5 mL Eppendorf tube. 0.2 mL of chloroform (Wako Pure Chemical Industries made) was added, shaken for 15 seconds and, then, left stand at room temperature for 2 or 3 minutes. The solution was centrifuged at 4° C. at 10000 rpm for 10 minutes by using a micro centrifuge (TOMY SEIKO Corp. made). 400 μL of the supernatant was transferred to a fresh 1.5 mL Eppendorf tube, 500 μL of isopropanol (Wako Pure, Chemical Industries made) was added, and left stand at room temperature for 10 minutes, and, then, centrifuged at 4° C. at 10000 rpm for 10 minutes by using the micro centrifuge. After the supernatant was removed, 1 mL of a 70% aqueous ethanol solution was added followed by shaking and, then, centrifugation was carried out at 4° C. at 10000 rpm for about 5 minutes by using, the micro centrifuge. After the supernatant was removed, a precipitation was dried and dissolved in 30 μL of distilled water to obtain the total RNA solution.
2 μg of the thus obtained total RNA was used as a template to synthesize a cDNA according to the attached protocol by using Deoxyribonuclease I (Amplification Grade)(Invitrogen Corp. made), Oligo(dT) 12-18 primer (Invitrogen Corp. made, 18418-012) and Omniscript reverse transcriptase (QIAGEN Corp, made). Thus, a reaction solution was prepared by adding 1 μL of 10× DNaseI Reaction Buffer, 1 μL of 10× DNaseI (all were made by Invitrogen Corp.) and distilled water to 2 μg of total RNA to make 10 μL in total, and the mixture was incubated at room temperature for 10 minutes. 1 μL of 25 mM EDTA solution was added and heated at 65° C. for 10 minutes. The mixture was cooled to room temperature, and then, 2 μL of 10× Buffer RT, 2 μL of 5 mM dNTP Mix, 2 μL of Oligo(dT) 12-18 primer, 0.25 μL of RNaseOUT (Invitrogen Corp. made, 10777-019) and 1 μL of Omniscript Reverse Transcriptase were added, and RNase-free purified water was added to give the total volume of 20 μL, and the mixture was incubated at 37° C. for 60 minutes to obtain cDNA solution. A portion of the synthesized cDNA obtained in such the way was diluted 5 folds with distilled water, and 2 μL of the solution was used as the template to conduct PCR by using Light Cycler-Fast Start DNA Master SYBR Green I Kit (Roche Diagnostics Corp. made) according to the attached protocol. The expression levels of the Oct-3/4 gene and glyceraldehyde-3-phosphate dehydrogenase (GAPDH) gene as the internal standard were measured. For amplifying the Oct-3/4 gene, sense primer OCT3 up (SEQ ID No.: 1) and antisense primer Oct3 down (SEQ ID No.: 2) were used, and for amplifying the GAPDH gene, sense primer GAPDH up (SEQ ID No.: 3) and antisense primer GAPDH down (SEQ ID No.: 4) were used. The composition of the PCR reaction solution and the reaction condition will be each presented below.

Nanog gene = Nanog gene expression level by real time PCR (ES cell differentiation inhibition assay 3); type: cell-based, mouse; details: D3ES cells, 4 μg/mL, 1 day, GAPDH internal standard, FIG. 7
Description: For the D3ES cells prepared by the method described in (3) preparation of a mouse ES cell of Example 1, 7.85×10^5 cells were seeded in a 10 cm-diameter cell culture dish coated previously with a 0.1% aqueous gelatin solution to make 10 mL of the ES cell assay medium. The differentiation inhibiting agent B of the present invention in the final concentration of 4 μg/mL or ESGRO in the final concentration of 1×10^3 unit/mL was added to each dish, and culturing was carried out at 37° C. in 5% CO2 incubator for 1 day.
The total RNA was extracted from the ES cell cultured by the method shown in (3) ES cell differentiation inhibition assay 3 as described above by using ISOGEN (K.K. Nippon Gene Corp. Japan made) by the attached method. In this method, the cell was collected in a 15 mL sterilized tube, centrifuged at 1,000 rpm for about 5 minutes by using the table centrifuge (TOMY SEIKO made) to make pellets. The supernatant was removed, the pellets were washed twice with 10 mL of PBS, and then, transferred to a 1.5 mL Eppendorf tube. The pellets were dissolved in 1 ml ISOGENE and left stand at room temperature for 5 minutes and, then, added with 0.2 mL of chloroform (Wako Pure Chemicals), shaken for 15 seconds, and left stand at room temperature for 2 or 3 minutes. Centrifugation was carried out at 4° C. at 10,000 rpm for 15 minutes by using the micro centrifuge (TOMY SEIKO made), 400 μL of the supernatant was transferred to a fresh 1.5 mL Eppendorf tube. 500 μL of isopropanol (Wako Pure Chemicals) was added and the mixture was left stand at room temperature for 10 minutes and, then, was centrifuged at 4° C. at 10,000 rpm for 10 minutes by using the micro centrifuge. The supernatant was removed and, then, 1 mL of a 70% ethanol aqueous solution was added. The mixture was shaken and then was centrifuged at 4° C. at 10,000 rpm for about 5 minutes by using the micro centrifuge. The supernatant was removed and the precipitation was dried and, then, dissolved in 30 μL of distilled water to obtain the total RNA solution.
The cDNA was synthesized by using 2 μg of the total RNA obtained by such the way as the template, using DeoxyribonucleaseI (Amplification Grade) (Invitrogen Corp. made) and SuperScript III First-Strand Synthesis System for RT-PCR (Invitrogen Corp. made, 18080-051) by the attached protocol. In this step, 1 μL of 10× DNaseI Reaction Buffer, 1 μL of 10× DNaseI (all these were of Invitrogen Corp. made) were added to 2 μg of the total RNA to give the total volume of 10 μL by adding distilled water to prepare the reaction solution, and then incubation was carried out at room temperature for 10 minutes. 1 μL of 25 mM EDTA solution was added, and the mixture was heated at 65° C. for 10 minutes and then, cooled to room temperature. 8 μL of the reaction solution was taken out, and 1 μL of […] Oligo(dT) 20 primer and 1 μL of 10 mM dNTP Mix were added, and incubation was carried out at 65° C. for 5 minutes. The reaction solution was placed on ice for 1 minute, and then 2 μL of 10× RT Buffer, 4 μL of 25 mM MgCl2, 2 μL of 0.1 M DTT, 1 μL of RNaseOUT (Invitrogen Corp. made) and 1 μL of SuperScript III RT were added for incubation at 50° C. for 50 minutes. Subsequently, incubation was carried out at 85° C. for 5 minutes, and then the mixture was left stand on ice for 1 min. […] The expression level of the Nanog gene and the glyceraldehyde-3-phosphate dehydrogenase (GAPDH) gene as the internal standard were measured. […]

COc1cccc(N=NC(C(N)=O)=C2NC(C)(C)Cc3ccccc32)c1 [D, 2-(3,3-dimethyl-3,4-dihydro-2H-isoquinoline-1-ylidene)-2-(3-methoxy-phenylazo)-acetamide]
expression of Oct-3/4 gene in comparison with ES cells cultured in the medium without the differentiation inhibiting agent (Oct-3/4 gene; GAPDH internal standard, FIG. 6): significantly promoted | effect of keeping the expression of the Oct-3/4 gene relative to ESGRO (Oct-3/4 gene; compared with 1,000 units/mL of ESGRO): comparable with 1,000 units/mL of ESGRO | expression level of Nanog gene in comparison with medium without agent and medium containing 1,000 units/mL of ESGRO (Nanog gene): increased similarly to the differentiation inhibiting agents B
